Assay results from the supplement of paper PMC11451515.

Tested on: P12-Ichikawa
Assay: cell viability relative to DMSO control; higher = less cytotoxic
Settings: 48 h
Method in brief: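 Three leukemia lines were tested: NOMO1 and SEM at 500 cells/well and P12-Ichikawa at 1000 cells/well. Each was adapted for at least four passages in each medium and seeded in 5 μl in 1536-well plates, and library compounds in DMSO were pin-dosed from 47 μM to 0.79 nM in 11 threefold steps. After 48 h at 37°C, CellTiter-Glo One luminescence was read. Viability is a percentage relative to DMSO wells on each plate, with cell-free wells as background.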

[1] = HPLM + 10% dialyzed FBS, 0.000781 µM
[2] = HPLM + 10% dialyzed FBS, 0.00234 µM
[3] = HPLM + 10% dialyzed FBS, 0.00702 µM
[4] = HPLM + 10% dialyzed FBS, 0.0211 µM
[5] = HPLM + 10% dialyzed FBS, 0.0632 µM
[6] = HPLM + 10% dialyzed FBS, 0.19 µM
[7] = HPLM + 10% dialyzed FBS, 0.569 µM
[8] = HPLM + 10% dialyzed FBS, 1.71 µM
[9] = HPLM + 10% dialyzed FBS, 5.12 µM
[10] = HPLM + 10% dialyzed FBS, 15.4 µM
[11] = HPLM + 10% dialyzed FBS, 46.1 µM
[12] = RPMI 5 mM glucose + 10% FBS, 0.000781 µM
[13] = RPMI 5 mM glucose + 10% FBS, 0.00234 µM
[14] = RPMI 5 mM glucose + 10% FBS, 0.00702 µM
[15] = RPMI 5 mM glucose + 10% FBS, 0.0211 µM
[16] = RPMI 5 mM glucose + 10% FBS, 0.0632 µM
[17] = RPMI 5 mM glucose + 10% FBS, 0.19 µM
[18] = RPMI 5 mM glucose + 10% FBS, 0.569 µM
[19] = RPMI 5 mM glucose + 10% FBS, 1.71 µM
[20] = RPMI 5 mM glucose + 10% FBS, 5.12 µM
[21] = RPMI 5 mM glucose + 10% FBS, 15.4 µM
[22] = RPMI 5 mM glucose + 10% FBS, 46.1 µM
[23] = RPMI 5 mM glucose + 10% dialyzed FBS, 0.000781 µM
[24] = RPMI 5 mM glucose + 10% dialyzed FBS, 0.00234 µM
[25] = RPMI 5 mM glucose + 10% dialyzed FBS, 0.00702 µM
[26] = RPMI 5 mM glucose + 10% dialyzed FBS, 0.0211 µM
[27] = RPMI 5 mM glucose + 10% dialyzed FBS, 0.0632 µM
[28] = RPMI 5 mM glucose + 10% dialyzed FBS, 0.19 µM
[29] = RPMI 5 mM glucose + 10% dialyzed FBS, 0.569 µM
[30] = RPMI 5 mM glucose + 10% dialyzed FBS, 1.71 µM
[31] = RPMI 5 mM glucose + 10% dialyzed FBS, 5.12 µM
[32] = RPMI 5 mM glucose + 10% dialyzed FBS, 15.4 µM
[33] = RPMI 5 mM glucose + 10% dialyzed FBS, 46.1 µM

| Structure (SMILES) | cell viability [1] [%] | cell viability [2] [%] | cell viability [3] [%] | cell viability [4] [%] | cell viability [5] [%] | cell viability [6] [%] | cell viability [7] [%] | cell viability [8] [%] | cell viability [9] [%] | cell viability [10] [%] | cell viability [11] [%] | cell viability [12] [%] | cell viability [13] [%] | cell viability [14] [%] | cell viability [15] [%] | cell viability [16] [%] | cell viability [17] [%] | cell viability [18] [%] | cell viability [19] [%] | cell viability [20] [%] | cell viability [21] [%] | cell viability [22] [%] | cell viability [23] [%] | cell viability [24] [%] | cell viability [25] [%] | cell viability [26] [%] | cell viability [27] [%] | cell viability [28] [%] | cell viability [29] [%] | cell viability [30] [%] | cell viability [31] [%] | cell viability [32] [%] | cell viability [33] [%] |
| --- | --- | --- | --- | --- | --- | --- | --- | --- | --- | --- | --- | --- | --- | --- | --- | --- | --- | --- | --- | --- | --- | --- | --- | --- | --- | --- | --- | --- | --- | --- | --- | --- | --- |
| Cc1nc(-c2ccc(-c3ccc(C(=O)N4CCc5cc6c(cc54)C4(CCN(C)CC4)CO6)cc3)c(C)c2)no1 | 106 | 114 | 111 | 116 | 122 | 111 | 121 | 123 | 119 | 119 | 120 | 107 | 112 | 106 | 116 | 117 | 114 | 123 | 115 | 121 | 124 | 118 | 107 | 107 | 113 | 116 | 110 | 121 | 120 | 116 | 115 | 121 | 126 |
| CN1CCN(CC1)C2=CC3=C([NH]C(=N3)C/4=C(\N)C5=C(F)C=CC=C5NC4=O)C=C2 | 103 | 106 | 109 | 99.2 | 88.7 | 99.7 | 96.3 | 95 | 73 | 65.5 | 37 | 107 | 103 | 111 | 112 | 88.8 | 104 | 91.9 | 89.2 | 60.2 | 45.2 | 30.4 | 112 | 112 | 106 | 107 | 102 | 107 | 97.8 | 91.3 | 67.1 | 46.3 | 29.4 |
| COCCCC/C(=N\OCCN)c1ccc(C(F)(F)F)cc1 | 98.4 | 87.1 | 91.2 | 91 | 94.9 | 80.8 | 74.4 | 85 | 80.9 | 72.2 | 63.5 | 83.5 | 81.8 | 91.7 | 79.8 | 95.8 | 72 | 62.2 | 83.2 | 80.3 | 67 | 41.9 | 79.8 | 80.7 | 76.9 | 84.6 | 84.4 | 80.3 | 77.9 | 78.8 | 74.5 | 77.2 | 52.7 |
| CCC(=O)O[C@@]1(CC[C@H]2[C@@H]3CCC/4=C/C(=O)CC[C@]4(C)[C@H]3CC[C@]12C)C(=O)CO | 99.2 | 107 | 104 | 115 | 110 | 116 | 125 | 107 | 98.9 | 83.7 | 83.1 | 91.6 | 122 | 109 | 113 | 112 | 118 | 109 | 109 | 106 | 78.9 | 69.1 | 102 | 103 | 108 | 109 | 98.6 | 117 | 116 | 106 | 110 | 79.9 | 63 |
| Cc1ccc(C(=O)Nc2ccc([S+](=O)([O-])O)c3cc([S+](=O)([O-])O)cc([S+](=O)([O-])O)c23)cc1NC(=O)c1cccc(NC(=O)Nc2cccc(C(=O)Nc3cc(C(=O)Nc4ccc([S+](=O)([O-])O)c5cc([S+](=O)([O-])O)cc([S+](=O)([O-])O)c45)ccc3C)c2)c1 | 97.5 | 104 | 92.8 | 95.4 | 96.4 | 87.2 | 77.3 | 81.5 | 57.1 | 55.2 | 47 | 97.3 | 89.2 | 99.6 | 102 | 88.6 | 82.2 | 92.4 | 81.1 | 60.5 | 53.4 | 44.3 | 99.1 | 94.9 | 93.5 | 94 | 89.3 | 88.8 | 80 | 75.9 | 56.4 | 54 | 42.9 |
| CCN(CC)CCCC(C)Nc1ccnc2cc(Cl)ccc12 (configuration not stated) | 105 | 110 | 112 | 117 | 119 | 121 | 113 | 109 | 101 | 27.5 | 21 | 105 | 114 | 108 | 102 | 111 | 112 | 107 | 103 | 101 | 21.4 | 20.7 | 107 | 109 | 106 | 109 | 106 | 101 | 117 | 110 | 98.2 | 27.7 | 22 |
| CC(C)(Sc1cc(C(C)(C)C)c(O)c(C(C)(C)C)c1)Sc1cc(C(C)(C)C)c(O)c(C(C)(C)C)c1 | 88.5 | 84.4 | 90 | 96.2 | 94.1 | 91 | 95.7 | 89.4 | 97 | 99.7 | 99.9 | 80.2 | 77.9 | 87.2 | 85.6 | 83.9 | 92.8 | 93.7 | 85.4 | 79.2 | 92.8 | 92.8 | 79.2 | 85.3 | 82.3 | 85.6 | 87.8 | 87.6 | 84.7 | 87.2 | 81.3 | 81.2 | 88.4 |
| COc1c(N2C[C@@H]3CCCN[C@@H]3C2)c(F)cc2c(=O)c(C(=O)O)cn(C3CC3)c12.Cl.O | 98.4 | 114 | 107 | 109 | 103 | 114 | 102 | 99.4 | 78.9 | 63 | 70.6 | 116 | 112 | 109 | 112 | 106 | 107 | 91.9 | 92.2 | 53.8 | 12.9 | 54 | 98.7 | 99.5 | 107 | 109 | 98.6 | 97 | 91 | 88.5 | 53.4 | 17.5 | 42.3 |
| N#CC1(c2cccc(C(=O)Nc3cc(Oc4ccc5nc(NC(=O)C6CC6)sc5n4)ccc3F)c2Cl)CC1 | 114 | 111 | 115 | 115 | 112 | 108 | 97 | 72.8 | 66.7 | 29 | 21.1 | 110 | 114 | 110 | 108 | 108 | 106 | 81.2 | 74.7 | 59.3 | 34.3 | 13.4 | 105 | 113 | 118 | 117 | 115 | 115 | 90.5 | 69 | 57.6 | 38.7 | 23.7 |
| Cc1nnc(C(=O)NC(C)(C)c2nc(C(=O)NCc3ccc(F)cc3)c(O)c(=O)n2C)o1 | 114 | 110 | 104 | 108 | 109 | 103 | 109 | 90.9 | 102 | 102 | 107 | 107 | 110 | 99.3 | 106 | 102 | 104 | 107 | 95.1 | 103 | 103 | 90.7 | 97.8 | 100 | 104 | 103 | 98.7 | 95.5 | 107 | 94.4 | 95.2 | 91.5 | 92.9 |
| COc1cc(N2CCN(C)CC2)ccc1Nc1nc(N)c(C(=O)c2c(Cl)cccc2Cl)s1 | 111 | 118 | 106 | 113 | 111 | 108 | 112 | 103 | 105 | 96.2 | 50.2 | 119 | 117 | 125 | 110 | 114 | 111 | 115 | 105 | 101 | 99.5 | 50.5 | 120 | 120 | 131 | 117 | 112 | 117 | 119 | 114 | 115 | 101 | 54.3 |
| CC(C)[C@H](O)C(=O)N[C@@H](C)C(=O)N[C@@H]1C(=O)N(C)CCc2ccccc21 | 112 | 114 | 111 | 112 | 115 | 108 | 102 | 90.7 | 110 | 91.4 | 90.7 | 114 | 123 | 122 | 109 | 119 | 116 | 104 | 113 | 106 | 97.7 | 105 | 116 | 113 | 113 | 105 | 96.6 | 106 | 102 | 99.6 | 94.6 | 98.8 | 92.7 |
| O=C(O)c1cccnc1 | 107 | 107 | 115 | 114 | 106 | 107 | 106 | 96.1 | 68.9 | 47.1 | 35.8 | 113 | 112 | 126 | 113 | 118 | 119 | 117 | 110 | 99.7 | 55.8 | 30.9 | 110 | 112 | 106 | 108 | 108 | 102 | 105 | 98.2 | 76.5 | 33.4 | 9.03 |
| COc1cc2cc(c1Cl)N(C)C(=O)C[C@H](OC(=O)C(C)C)[C@]1(C)O[C@@H]1[C@H](C)[C@@H]1C[C@@](O)(NC(=O)O1)[C@H](OC)/C=C/C=C(\C)C2 | 8.03 | 10.4 | 10 | 9.14 | 10.7 | 8.31 | 8.37 | 6.69 | 6.57 | 5.07 | 2.08 | 9.26 | 12.1 | 11.2 | 11.8 | 11 | 9.9 | 8.75 | 8.41 | 6.23 | 5.36 | 2 | 17.5 | 18.1 | 16.5 | 14.6 | 14.3 | 12.9 | 12.2 | 10.2 | 8.98 | 8.07 | 2.84 |
